Measurements: patent US9611278B2 (Merck Sharp & Dohme Corp., priority 2013, dated 2017)

Biological target: T1, sGC α1/β1 heterodimer stably expressed in CHO-K1 cells (CHO-K1/sGC) (Homo sapiens, UniProt Q02108+Q02153)
T1 construct: expressed in transfected cells
T1 sequence (Q02108 1-690): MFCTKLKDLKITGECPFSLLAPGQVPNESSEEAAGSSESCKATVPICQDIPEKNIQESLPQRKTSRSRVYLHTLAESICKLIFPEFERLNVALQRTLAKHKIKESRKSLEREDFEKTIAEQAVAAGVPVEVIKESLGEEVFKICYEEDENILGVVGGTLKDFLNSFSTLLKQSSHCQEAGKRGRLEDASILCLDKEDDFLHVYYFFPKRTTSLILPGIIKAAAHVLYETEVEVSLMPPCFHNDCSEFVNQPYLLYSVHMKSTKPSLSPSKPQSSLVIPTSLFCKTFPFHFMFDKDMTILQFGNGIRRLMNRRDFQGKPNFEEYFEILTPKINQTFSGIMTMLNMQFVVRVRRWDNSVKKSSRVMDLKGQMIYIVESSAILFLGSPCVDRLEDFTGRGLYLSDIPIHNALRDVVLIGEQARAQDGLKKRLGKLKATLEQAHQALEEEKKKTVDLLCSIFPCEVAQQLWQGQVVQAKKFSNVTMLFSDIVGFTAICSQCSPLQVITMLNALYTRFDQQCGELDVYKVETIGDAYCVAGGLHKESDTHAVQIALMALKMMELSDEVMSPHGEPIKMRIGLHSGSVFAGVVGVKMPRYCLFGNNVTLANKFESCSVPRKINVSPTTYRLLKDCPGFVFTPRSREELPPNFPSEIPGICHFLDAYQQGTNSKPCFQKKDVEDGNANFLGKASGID
T1 sequence (Q02153 1-619): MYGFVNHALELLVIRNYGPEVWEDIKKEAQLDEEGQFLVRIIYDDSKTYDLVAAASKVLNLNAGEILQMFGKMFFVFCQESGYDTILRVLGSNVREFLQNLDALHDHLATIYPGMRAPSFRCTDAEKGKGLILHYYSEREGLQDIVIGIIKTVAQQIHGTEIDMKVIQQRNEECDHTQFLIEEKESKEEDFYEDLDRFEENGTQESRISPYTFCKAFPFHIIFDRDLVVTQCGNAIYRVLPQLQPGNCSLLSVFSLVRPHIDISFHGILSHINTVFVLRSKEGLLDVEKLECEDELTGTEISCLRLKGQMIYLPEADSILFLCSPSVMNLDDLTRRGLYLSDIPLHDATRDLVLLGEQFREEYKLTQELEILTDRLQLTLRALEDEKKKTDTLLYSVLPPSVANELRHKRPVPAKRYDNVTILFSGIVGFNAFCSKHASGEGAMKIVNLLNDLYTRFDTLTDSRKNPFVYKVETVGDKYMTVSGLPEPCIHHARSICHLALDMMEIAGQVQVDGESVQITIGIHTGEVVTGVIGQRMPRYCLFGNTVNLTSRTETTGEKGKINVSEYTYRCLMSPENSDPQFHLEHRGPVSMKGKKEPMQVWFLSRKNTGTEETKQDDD
Test: Cell-based sGC Functional Assay (CASA Assay)
Details: for % Act.: activation as percentage of maximum cGMP production of Compound A (set to 100%); for EC50: inflection point of cGMP generation in CHO-K1/sGC cells, 4P fit, 1 hr at 37° C., read-out: IP; for Emax: CHO-K1, activation as percentage of maximum cGMP production of Compound A (set to 100%), read-out: % Act.
Source text: sGC is a heme-containing enzyme that converts GTP to secondary messenger cGMP. Increases in cGMP levels affect several physiological processes including vasorelaxation through multiple downstream pathways. […] Heme-dependent activators (HDAs) preferentially activate sGC containing a ferrous heme group. To determine the effect of sGC activators on enzyme activity, the CASA assay was developed to monitor the generation of cGMP in a cell line that stably expresses the heterodimeric sGC protein.
A CHO-K1 cell line stably expressing the sGC α1/β1 heterodimer was generated using a standard transfection protocol. CHO-K1 cells were transfected with plasmids pIREShyghsGCα1 and pIRESneo-hsGCβ1 simultaneously using FUGENE reagent. Clones that stably express both subunits were selected with hygromycin and neomycin for ˜2 weeks. Clone #7 was chosen for the assay and was designated CHO-K1/sGC. CHO-K1/sGC cells were maintained in F-K12 medium containing 10% heat-inactivated Fetal Bovine Serum (FBS), 100 μg/mL penicillin/streptomycin, 0.5 mg/mL hygromycin and 0.25 mg/mL G418. The cells were then cryopreserved in LN2. On the day of the assay, cells thawed and resuspended in EBSS Assay Buffer (EAB, Sigma, E3024) supplemented with 5 mM MgCl2, 10 mM HEPES (4-(2-hydroxyethyl)piperazine-1-ethanesulfonic acid) and 0.05% BSA (bovine serum albumin) and cell density was then adjusted to 4×10^5/mL with EAB. IBMX (3-isobutyl-1-methylxanthin, 0.5 mM) was added to inhibit degradation of cGMP. Compounds were diluted from DMSO stock solutions and added to the assay at a final DMSO concentration of 2.5%. Cells were incubated with compounds in the presence and absence of 1 μM of Diethylenetriamine/nitric oxide adduct (DETA-NO; Sigma, 17018) for 1 hr at 37° C. At the end of the incubation period, the reaction was terminated and the cells were lysed with the detection reagents from Cisbio Kits. The level of intracellular cGMP was determined using an HTRF-based assay kit (CisBio, 62GM2PEC), which detects the displacement of a fluorescence labeled cGMP from its specific antibody. The cGMP produced by test compounds was directly compared to the maximum cGMP production (this value was set to equal 100% activation.) of the published sGC-HDA Compound A:
(Example 1 in WO 2010/065275, published Jun. 10, 2010). The test compounds' activity were then expressed as a percentage of Compound A, the standard in every experiment. This percent activation was calculated either in the presence or absence of DETA-NO which was then plotted. IP and maximum fold induction was derived using ADA analysis software for 4P fit.

Row | Compound | % Act. | EC50 | Emax
1 | 4-Amino-5-cyclopropyl-2-(6-((3,3-difluorocyclobutyl)methyl)-1-methyl-1H-pyrazolo[3,4-d]pyrimidin-4-yl)-5-(5-ethyl-1,3,4-oxadiazol-2-yl)-5,7-dihydro-6H-pyrrolo[2,3-d]pyrimidin-6-one [Example 52] | 148% | 90 nM | –
2 | 4-Amino-5-ethyl-2-(1-methyl-6-(3,3,4,4,4-pentafluorobutyl)-1H-pyrazolo[3,4-d]pyrimidin-4-yl)-5-(1-propyl-1H-1,2,3-triazol-4-yl)-5,7-dihydro-6H-pyrrolo[2,3-d]pyrimidin-6-one [Example 73] | 117% | 416 nM | –
3 | 4-Amino-5-methyl-5-(5-methyl-1,3,4-thiadiazol-2-yl)-2-(1-methyl-6-(3,3,4,4,4-pentafluorobutyl)-1H-pyrazolo[3,4-d]pyrimidin-4-yl)-5,7-dihydro-6H-pyrrolo[2,3-d]pyrimidin-6-one [Example 27] | 89% | 208 nM | –
4 | CCCCc1nc(-c2nc(N)c3c(n2)NC(=O)C3(C)c2ccc(OC)cn2)c2cnn(C)c2n1 (single isomer, unassigned) [Example 36, 4-Amino-2-(6-butyl-1-methyl-1H-pyrazolo[3,4-d]pyrimidin-4-yl)-5-(5-methoxypyridin-2-yl)-5-methyl-5,7-dihydro-6H-pyrrolo[2,3-d]pyrimidin-6-one] | – | 43 nM | 116%
5 | [2H]C([2H])([2H])n1ncc2c(-c3nc(N)c4c(n3)NC(=O)C4(c3nnc(C)o3)C3CC3)nc(CCC(F)(F)C(F)(F)F)nc21 (single isomer, unassigned) [Example 40A, 4-Amino-5-cyclopropyl-5-(5-methyl-1,3,4-oxadiazol-2-yl)-2-(1-(methyl-d3)-6-(3,3,4,4,4-pentafluorobutyl)-1H-pyrazolo[3,4-d]pyrimidin-4-yl)-5,7-dihydro-6H-pyrrolo[2,3-d]pyrimidin-6-one] | 89% | 371 nM | –
6 | [2H]C([2H])([2H])n1ncc2c(-c3nc(N)c4c(n3)NC(=O)C4(c3nnc(C)o3)C3CC3)nc(CCC(F)(F)C(F)(F)F)nc21 (single isomer, unassigned) [Example 40B, 4-Amino-5-cyclopropyl-5-(5-methyl-1,3,4-oxadiazol-2-yl)-2-(1-(methyl-d3)-6-(3,3,4,4,4-pentafluorobutyl)-1H-pyrazolo[3,4-d]pyrimidin-4-yl)-5,7-dihydro-6H-pyrrolo[2,3-d]pyrimidin-6-one] | 68% | 292 nM | –
7 | [2H]C([2H])([2H])n1ncc2c(-c3nc(N)c4c(n3)NC(=O)C4(C)c3cn(C(C)C)nn3)nc(CCC(F)(F)C(F)(F)F)nc21 (single isomer, unassigned) [Example 57, 4-Amino-5-(1-isopropyl-1H-1,2,3-triazol-4-yl)-5-methyl-2-(1-(methyl-d3)-6-(3,3,4,4,4-pentafluorobutyl)-1H-pyrazolo[3,4-d]pyrimidin-4-yl)-5,7-dihydro-6H-pyrrolo[2,3-d]pyrimidin-6-one] | – | 147 nM | 125%
8 | CCC1(c2cn(C)nn2)C(=O)Nc2nc(-c3nc(CCC(F)(F)C(F)(F)F)nc4c3cnn4C)nc(N)c21 (single isomer, unassigned) [Example 58, 4-Amino-5-ethyl-5-(1-methyl-1H-1,2,3-triazol-4-yl)-2-(1-methyl-6-(3,3,4,4,4-pentafluorobutyl)-1H-pyrazolo[3,4-d]pyrimidin-4-yl)-5,7-dihydro-6H-pyrrolo[2,3-d]pyrimidin-6-one] | – | 713 nM | 105%
9 | Cn1ncc2c(-c3nc(N)c4c(n3)NC(=O)C4(C)c3c[nH]nn3)nc(CCC(F)(F)C(F)(F)F)nc21 (single isomer, unassigned) [Example 60, 4-Amino-S-methyl-2-(1-methyl-6-(3,3,4,4,4-pentafluorobutyl)-1H-pyrazolo[3,4-d]pyrimidin-4-yl)-5-(1H-1,2,3-triazol-4-yl)-5,7-dihydro-6H-pyrrolo[2,3-d]pyrimidin-6-one] | – | 933 nM | 136%
10 | Cn1cc(C2(C3CC3)C(=O)Nc3nc(-c4nc(CCCC(F)(F)F)nc5c4cnn5C)nc(N)c32)nn1 (single isomer, unassigned) [Example 62, 4-Amino-5-cyclopropyl-5-(1-methyl-1H-1,2,3-triazol-4-yl)-2-(1-methyl-6-(4,4,4-trifluorobutyl)-1H-pyrazolo[3,4-d]pyrimidin-4-yl)-5,7-dihydro-6H-pyrrolo[2,3-d]pyrimidin-6-one] | – | 800 nM | 99%
11 | CCC1(c2cn(C(C)C)nn2)C(=O)Nc2nc(-c3nc(CCC(F)(F)C(F)(F)F)nc4c3cnn4C)nc(N)c21 (single isomer, unassigned) [Example 68, 4-Amino-5-ethyl-5-(1-isopropyl-1H-1,2,3-triazol-4-yl)-2-(1-methyl-6-(3,3,4,4,4-pentafluorobutyl)-1H-pyrazolo[3,4-d]pyrimidin-4-yl)-5,7-dihydro-6H-pyrrolo[2,3-d]pyrimidin-6-one] | – | 811 nM | 133%
12 | CCCn1cc(C2(C)C(=O)Nc3nc(-c4nc(CCC(F)(F)C(F)(F)F)nc5c4cnn5C)nc(N)c32)nn1 (single isomer, unassigned) [Example 71, 4-Amino-5-methyl-2-(1-methyl-6-(3,3,4,4,4-pentafluorobutyl)-1H-pyrazolo[3,4-d]pyrimidin-4-yl)-5-(1-propyl-1H-1,2,3-triazol-4-yl)-5,7-dihydro-6H-pyrrolo[2,3-d]pyrimidin-6-one] | – | 217 nM | 169%
13 | CCCn1cc(C2(CC)C(=O)Nc3nc(-c4nc(CCC(F)(F)C(F)(F)F)nc5c4cnn5C)nc(N)c32)nn1 (single isomer, unassigned) [Example 72, 4-Amino-5-ethyl-2-(1-methyl-6-(3,3,4,4,4-pentafluorobutyl)-1H-pyrazolo[3,4-d]pyrimidin-4-yl)-5-(1-propyl-1H-1,2,3-triazol-4-yl)-5,7-dihydro-6H-pyrrolo[2,3-d]pyrimidin-6-one] | – | 503 nM | 121%
